Where two headings read alike, the source gives them in different places.
Tests used:
[1] = tested on: Cellulolytic Enzyme Composition #1; experiment: mini-plate-scale AVICEL hydrolysis by Cellulolytic Enzyme Composition #1; assay type: biochemical, Trichoderma reesei; details: for Effect on hydrolysis (in words) / Effect on enzymatic cellulolysis: gain in initial rate / Effect on enzymatic cellulolysis: gain in extended hydrolysis extent / Effect on enzymatic cellulolysis: loss in initial rate / Effect on enzymatic cellulolysis: loss in extended hydrolysis extent: 10 mM; for Effect on enzymatic cellulolysis: gain in initial rate / Effect on enzymatic cellulolysis: gain in extended hydrolysis extent / Effect on enzymatic cellulolysis: loss in initial rate / Effect on enzymatic cellulolysis: loss in extended hydrolysis extent: 25 g AVICEL and 0.25 g enzyme per liter, pH 5, 50° C.; for Effect on enzymatic cellulolysis: gain in extended hydrolysis extent / Effect on enzymatic cellulolysis: loss in extended hydrolysis extent: after 4 days; for IC50: AVICEL hydrolysis, 0.2 to 2 mM inhibitor
Experimental: (§1) Various (biologically common) divalent metal cations with variable ionic radii were tested in 2.8 ml Deep Well Microplates (VWR International, West Chester, Pa., USA) (“mini-plate-scale”) containing 1 ml suspensions of 25 g of AVICEL® per liter in 50 mM sodium acetate pH 5 at 50° C. Cellulolytic Enzyme Composition #1 was added at 0.25 g per liter for each hydrolysis. The mini-plates were sealed at 160° C. for 2 seconds using an ABGENE® ALPS 300™ sealer (ABgene, Rochester, N.Y., USA). The sealed mini-plates were incubated at 50° C. in an INNOVA® 4080 incubator shaker at 150 rpm. Soluble reducing sugars were measured by HPLC as described in Example 30.
Iron-chelator complexes of variable size or redox property were tested for their ability to inhibit enzymatic hydrolysis of cellulose. […]

[2] = cited from earlier work; for Radius: ionic radii in crystals, 6-ligand coordination
[3] = tested on: Cellulolytic Enzyme Composition #1; experiment: mini-plate-scale PASC hydrolysis by Cellulolytic Enzyme Composition #1; assay type: biochemical, Trichoderma reesei; details: 10 mM; 2 g PASC and 0.01 g enzyme per liter
Experimental: as §1
In one series of “mini-scale” hydrolysis reactions performed according to the procedure described in Example 30, the effect of 1 mM to 10 mM FeSO4 was evaluated in the hydrolysis of AVICEL® by Cellulolytic Enzyme Composition #1. In a series of “mini-plate-scale” hydrolysis reactions performed according to the procedure described in Example 32, the effect of 1 mM to 10 mM FeSO4 was evaluated in the hydrolysis of PASC by Cellulolytic Enzyme Composition #1, except 2 g of PASC and 0.05 g Cellulolytic Enzyme Composition #1 per liter of 50 mM sodium acetate pH 5 were used.
The above study was extended to a range of concentration of Fe(II) and cellulose. In a series of “mini-plate-scale” hydrolysis reactions performed according to the procedure described in Example 32, except that 0.1 to 10 mM FeSO4, 0.6 to 4 g of PASC and 0.01 g of Cellulolytic Enzyme Composition #1 per liter of 50 mM sodium acetate pH 5 were used.

[4] = tested on: Cellulolytic Enzyme Composition #1; experiment: Pre-incubation of iron ion with PASC or enzyme, then PASC hydrolysis; assay type: biochemical, Trichoderma reesei
Experimental: The “pre-incubation” study was also performed for the hydrolysis of PASC. The experiments were similar to those described above, except 2 g of PASC, replacing AVICEL®, and 0.01 g of Cellulolytic Enzyme Composition #1 per liter of 50 mM sodium acetate pH 5, and 3 days pre-incubation were used. All hydrolyses were performed using the “mini-plate-scale” hydrolysis reaction according to the procedure described in Example 32, except for the change in cellulose or cellulase described above.

[5] = tested on: Cellulolytic Enzyme Composition #1; experiment: Pre-incubation of iron ion with AVICEL or enzyme, then AVICEL hydrolysis; assay type: biochemical, Trichoderma reesei
Experimental: To test whether Fe(II) affects cellulose or cellulase, 10 mM FeCl2 was pre-incubated with either 25 g of AVICEL® or 0.25 g of Cellulolytic Enzyme Composition #1 per liter of 50 mM sodium acetate pH 5 for three days. “Fe-pretreated” AVICEL® was washed and Cellulolytic Enzyme Composition #1 was gel-filtered using BioSpin 6 desalting columns (Bio-Rad, Hercules, Calif., USA) to remove residual Fe ion. Fe-pretreated AVICEL® was hydrolyzed with fresh Cellulolytic Enzyme Composition #1 or Cellulolytic Enzyme Composition #1 subjected to “FeCl2-less” pre-incubation and gel filtration. Fe-pretreated Cellulolytic Enzyme Composition #1 was applied to hydrolyze fresh AVICEL® or AVICEL® subjected to “FeCl2-less” pre-incubation and washing, in comparison with the hydrolysis of fresh AVICEL® ([…]) by fresh Cellulolytic Enzyme Composition #1 ([…]), with or without 10 mM FeCl2. All hydrolyses were performed using the “mini-plate-scale” hydrolysis reaction procedure described in Example 32, except for the change in cellulose or cellulase described above.
To test whether Fe(III) affected cellulose or cellulase, 10 mM FeCl3 was pre-incubated with either 25 g of AVICEL® or 0.25 g of Cellulolytic Enzyme Composition #1 per liter of 50 mM sodium acetate pH 5 for three days. All hydrolyses were performed using the “mini-plate-scale” hydrolysis reactions according to the procedure described in Example 32, except for the change in cellulose or cellulase described above.

[6] = single-electron redox potential vs NHE
[7] = read-out: I50 estimated based on limited data
[8] = single-electron oxidation potential of iron-chelator complexes
[9] = fresh salt, PASC, enzyme fresh or buffer pre-incubated
[10] = pre-incubated 3 days with Cellulolytic Enzyme Composition #1
[11] = 10 mM fresh salt, fresh AVICEL, fresh enzyme
[12] = 10 mM, pre-incubated three days with AVICEL
[13] = 10 mM, pre-incubated three days with Cellulolytic Enzyme Composition #1

Molecule | Effect on hydrolysis (in words) [1] | Radius [2] [Å] | E° [2, 6] [V] | Effect on enzymatic cellulolysis: loss in initial rate [1] | Effect on enzymatic cellulolysis: loss in extended hydrolysis extent [1] | IC50 ([1]; read-out: I50) [mM] | further results
[Ca+2].[Cl-].[Cl-] [Ca(II), CaCl2] | slight enhancement | 1.00 | −0.96 |  |  |  | Effect on enzymatic cellulolysis: gain in initial rate [1]: ~20% gain in initial rate, ~20% gain in extended hydrolysis extent; Effect on enzymatic cellulolysis: gain in extended hydrolysis extent [1]: ~20% gain in initial rate, ~20% gain in extended hydrolysis extent
O=S(=O)([O-])[O-].[Co+2] [Co(II), CoSO4] | slight or moderate inhibition | 0.65 |  | ~10% | no change |  | E° ([2]; 2-electron E° (in parenthesis)): (−0.28) V
[Cl][Cr]([Cl])[Cl] [Cr(III), CrCl3] | moderate | 0.62 | −0.407 | ~40% loss in initial rate, ~40% loss in extended hydrolysis extent | ~40% loss in initial rate, ~40% loss in extended hydrolysis extent |  | IC50 [1, 7]: > 10 mM
O=S(=O)([O-])[O-].[Cu+2] [Cu(II), CuSO4] |  | 0.73 | 0.153 | ~90% | ~80% | 0.2 | 
O=C([O-])CN(CCN(CC(=O)[O-])CC(=O)[O-])CC(=O)[O-].[Fe+2].[Na+].[Na+] [Fe(II)Na2EDTA, FeNa2EDTA] |  |  |  | ~80% loss in initial rate, ~80% loss in extended hydrolysis extent | ~80% loss in initial rate, ~80% loss in extended hydrolysis extent |  | IC50 [1, 7]: < 10 mM; E° [2, 8]: (=Fe(III)NaEDTA's)
[Cl][Fe]([Cl])[Cl] [Fe(III), FeCl3] |  | 0.55 | 0.771 | ~90% loss in initial rate, ~90% loss in extended hydrolysis extent | ~90% loss in initial rate, ~90% loss in extended hydrolysis extent | 0.5 ± 0.4 | Effect on enzymatic cellulolysis: loss in extended hydrolysis extent ([1]; listed as FeCl3): ~90%; Effect on enzymatic cellulolysis: loss in initial rate ([1]; listed as FeCl3): ~90%; loss of extent of hydrolysis after 4 days [3]: ~80%; loss of initial hydrolysis rate [3]: ~80%; loss in extent of hydrolysis [4, 9]: approximately 30%; loss in initial rate [4, 9]: ~70%; loss in extent of hydrolysis [4, 10]: no loss; loss in initial rate [4, 10]: ~50%; loss in extent of hydrolysis ([4]; pre-incubated 3 days with PASC): ~10%; loss in initial rate ([4]; pre-incubated 3 days with PASC): ~50%; loss in extent of hydrolysis [5, 11]: ~90%; loss in initial rate [5, 11]: ~90%; loss in extent of hydrolysis [5, 12]: ~80%; loss in initial rate [5, 12]: ~80%; loss in extent of hydrolysis [5, 13]: ~20%; loss in initial rate [5, 13]: ~20%
O=C([O-])CN(CCN(CC(=O)[O-])CC(=O)[O-])CC(=O)[O-].[Fe+3].[Na+] [Fe(III)NaEDTA, FeNa(EDTA)] |  |  |  | ~10% | ~20% |  | IC50 [1, 7]: ~10 mM; E° [2, 8]: 0.13^2 V
[Cl-].[Cl-].[Mg+2] [Mg(II), MgCl2] | slight enhancement | 0.72 | −0.33 |  |  |  | Effect on enzymatic cellulolysis: gain in initial rate [1]: ~20% gain in initial rate, ~20% gain in extended hydrolysis extent; Effect on enzymatic cellulolysis: gain in extended hydrolysis extent [1]: ~20% gain in initial rate, ~20% gain in extended hydrolysis extent
O=S(=O)([O-])[O-].[Mn+2] [Mn(II), MnSO4] | slight or moderate inhibition | 0.67 |  | ~10% | no change |  | Effect on hydrolysis over concentration range ([1]; 0.1 to 10 mM): no effect; E° ([2]; 2-electron E° (in parenthesis)): (−1.185) V
[Cl][Ni][Cl] [Ni(II), NiCl2] | slight or moderate inhibition | 0.69 | −1.56 | ~20% | ~10% |  | 
[Cl][Ru]([Cl])[Cl] [Ru(III), RuCl3] | pronounced | 0.68 | 0.249 | ~90% | ~80% | 0.15 | 
O=S(=O)([O-])[O-].[Zn+2] [Zn(II), ZnSO4] | slight or moderate inhibition | 0.74 | −2.3 | ~20% loss in initial rate, ~20% loss in extended hydrolysis extent | ~20% loss in initial rate, ~20% loss in extended hydrolysis extent |  | 
Fe(2,2′-bipyridyl)3Cl2 [Fe(II)(2,2′BP)2Cl2] |  |  |  | ~40% loss in initial rate, ~40% loss in extended hydrolysis extent | ~40% loss in initial rate, ~40% loss in extended hydrolysis extent | 20 | 
Fe(2,2′-bipyridyl)3Cl3 [Fe(III)(2,2′BP)2Cl3] |  |  |  | ~100% loss in initial rate, ~100% loss in extended hydrolysis extent | ~100% loss in initial rate, ~100% loss in extended hydrolysis extent | 0.6 ± 0.1 | E° [2, 8]: 0.78 V
quinone [reference compound] |  |  |  |  |  |  | IC50 [1, 7]: ~5 mM

Source: patent publication US20090130707A1, “Methods of reducing the inhibitory effect of a redox active metal ion on the enzymatic hydrolysis of cellulosic material” (priority 2007, published 2009)
